Counter-ions that a name gives are not always drawn.
What was measured:
[1] = Solubility of the powder in water; type: physicochemical
[2] = Pharmacokinetics after administration of the subject combination; details: for Cmax relative to the peak level of bupropion: after administration of the subject combination; for apparent elimination half-life (metabolite): subject combination

Compound	solubility in water [1]	dose proportionality of pharmacokinetics (AUC and Cmax) ([2]; co-administered with bupropion, steady state, dextromethorphan 30 to 60 mg, bupropion 75 to 150 mg)	Cmax when administered with food ([2]; subject combination with food)	Cmax relative to the peak level of bupropion [2]	apparent elimination half-life (metabolite) [2]
CC(NC(C)(C)C)C(=O)c1cccc(Cl)c1 (racemic) [Bupropion hydrochloride, (±)-1-(3-chlorophenyl)-2-[(1,1-dimethylethyl)amino]-1-propanone hydrochloride]	highly soluble in water				
COc1ccc2c(c1)[C@]13CCCC[C@@H]1[C@H](C2)N(C)CC3 [dextromethorphan, reference compound]		nonlinear pharmacokinetics at steady state	unchanged		
CC(NC(C)(C)C)C(O)c1cccc(Cl)c1 (stereo not drawn) [erythrohydroxybupropion]				approximately equal to	~44 h
C[C@H]1NC(C)(C)CO[C@]1(O)c1cccc(Cl)c1 [hydroxybupropion]				approximately 14 times	approximately 35 hours
C[C@H](NC(C)(C)C)[C@@H](O)c1cccc(Cl)c1 [threohydroxybupropion]				about 5 times	~33 h

From patent US20250281430A1, “BUPROPION AS A MODULATOR OF DRUG ACTIVITY” (ANTECIP BIOVENTURES II LLC, priority 2022, published 2025)
